Here are results for 19 compounds from ChEMBL document CHEMBL3352469, “Pyrrolo- and pyridomorphinans: non-selective opioid antagonists and delta opioid agonists/mu opioid partial agonists” (Bioorg Med Chem, 2014).

Experiment [1] addresses T1, Kappa-type opioid receptor (Homo sapiens, UniProt P41145). In words: Displacement of [3H]U69593 from human recombinant kappa opioid receptor expressed in CHO cell membranes after 60 mins by scintillation counting method. On the technique in general: In a radioligand displacement assay an active substance lowers the binding of a labelled ligand.
Experiment [2] deals with T2, Mu-type opioid receptor (Homo sapiens, UniProt P35372). In words: Displacement of [3H]DAMGO from human recombinant mu opioid receptor expressed in CHO cell membranes after 60 mins by scintillation counting method.
T2 sequence (P35372 whole entry): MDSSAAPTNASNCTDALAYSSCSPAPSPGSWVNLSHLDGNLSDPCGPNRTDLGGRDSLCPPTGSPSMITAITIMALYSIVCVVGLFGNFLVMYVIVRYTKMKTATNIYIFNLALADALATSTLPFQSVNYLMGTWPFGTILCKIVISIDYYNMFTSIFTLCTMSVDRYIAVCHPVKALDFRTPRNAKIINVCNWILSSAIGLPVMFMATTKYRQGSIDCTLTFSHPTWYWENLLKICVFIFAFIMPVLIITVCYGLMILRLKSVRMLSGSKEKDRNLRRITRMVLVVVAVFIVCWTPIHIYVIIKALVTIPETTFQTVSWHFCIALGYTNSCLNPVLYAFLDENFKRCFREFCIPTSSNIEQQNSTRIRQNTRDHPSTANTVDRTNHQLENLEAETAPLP
The target in experiment [3] is T3, Delta-type opioid receptor (Homo sapiens, UniProt P41143). The experiment in a line: Agonist activity at human recombinant delta opioid receptor expressed in CHO cell membranes after 60 mins by [35S]GTPgammaS binding assay relative to DPDPE. The format is functional. In general terms: GTPγS resists hydrolysis and so accumulates on activated G proteins.
T3 sequence (P41143 whole entry): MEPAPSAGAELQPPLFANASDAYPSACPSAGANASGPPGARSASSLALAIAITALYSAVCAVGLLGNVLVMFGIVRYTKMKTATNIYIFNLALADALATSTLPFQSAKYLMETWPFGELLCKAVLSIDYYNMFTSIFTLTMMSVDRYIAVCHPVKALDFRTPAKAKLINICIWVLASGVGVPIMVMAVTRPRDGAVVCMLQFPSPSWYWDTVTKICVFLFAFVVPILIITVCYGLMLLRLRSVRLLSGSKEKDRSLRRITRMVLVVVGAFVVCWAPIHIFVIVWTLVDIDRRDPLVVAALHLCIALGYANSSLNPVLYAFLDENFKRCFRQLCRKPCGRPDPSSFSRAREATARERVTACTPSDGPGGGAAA
Experiment [4] concerns the target T2, Mu-type opioid receptor. The experiment in a line: Agonist activity at human recombinant mu opioid receptor expressed in CHO cell membranes after 60 mins by [35S]GTPgammaS binding assay. The format is functional.
Experiment [5] has as its target T1, Kappa-type opioid receptor. In words: Antagonist activity at human recombinant kappa opioid receptor expressed in CHO cell membranes assessed as inhibition of U69593-induced response after 60 mins by [35S]GTPgammaS binding assay. The format is functional.
Experiment [6] deals with T3, Delta-type opioid receptor. The experiment in a line: Displacement of [3H]Cl-DPDPE from human recombinant delta opioid receptor expressed in CHO cell membranes after 60 mins by scintillation counting method.
Experiment [7] addresses T3, Delta-type opioid receptor. The experiment in a line: Agonist activity at human recombinant delta opioid receptor expressed in CHO cell membranes after 60 mins by [35S]GTPgammaS binding assay. The format is functional.
Experiment [8] has as its target T2, Mu-type opioid receptor. In words: Agonist activity at human recombinant mu opioid receptor expressed in CHO cell membranes after 60 mins by [35S]GTPgammaS binding assay relative to DAMGO. The format is functional.
Experiment [9] concerns the target T2, Mu-type opioid receptor. The experiment in a line: Agonist activity at human recombinant mu opioid receptor expressed in CHO cell membranes at 10 uM after 60 mins by [35S]GTPgammaS binding assay relative to DAMGO. The format is functional.
Experiment [10] deals with T4, Nociceptin receptor (Homo sapiens, UniProt P41146). The experiment in a line: Displacement of [3H]nociceptin from human recombinant NOP receptor expressed in CHO cell membranes after 60 mins by scintillation counting method.
T4 sequence (P41146 whole entry): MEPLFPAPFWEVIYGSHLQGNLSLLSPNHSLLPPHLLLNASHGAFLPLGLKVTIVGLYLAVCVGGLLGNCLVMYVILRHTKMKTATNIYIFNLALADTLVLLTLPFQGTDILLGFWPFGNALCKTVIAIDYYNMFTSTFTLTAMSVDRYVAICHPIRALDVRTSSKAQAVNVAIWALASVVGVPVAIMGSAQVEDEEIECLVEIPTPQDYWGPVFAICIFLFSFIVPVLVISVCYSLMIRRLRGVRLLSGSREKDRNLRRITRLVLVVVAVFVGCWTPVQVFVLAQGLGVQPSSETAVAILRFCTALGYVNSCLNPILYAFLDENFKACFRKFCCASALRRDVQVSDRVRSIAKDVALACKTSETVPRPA
For experiment [11], the target named is T4, Nociceptin receptor. In words: Agonist activity at human recombinant NOPR receptor expressed in CHO cell membranes at 10 uM after 60 mins by [35S]GTPgammaS binding assay relative to nociceptin. The format is functional.
Experiment [12] addresses T1, Kappa-type opioid receptor. In words: Agonist activity at human recombinant kappa opioid receptor expressed in CHO cell membranes at 10 uM after 60 mins by [35S]GTPgammaS binding assay relative to U69593. The format is functional.
Experiment [13] concerns the target T2, Mu-type opioid receptor. In words: Antagonist activity at human recombinant mu opioid receptor expressed in CHO cell membranes assessed as inhibition of DAMGO-induced response after 60 mins by [35S]GTPgammaS binding assay. The format is functional.
Experiment [14] addresses T3, Delta-type opioid receptor. The experiment in a line: Antagonist activity at human recombinant delta opioid receptor expressed in CHO cell membranes assessed as inhibition of DPDPE-induced response after 60 mins by [35S]GTPgammaS binding assay. The format is functional.
Experiment [15] is filed under the species Homo sapiens. The experiment in a line: Selectivity for human recombinant delta opioid receptor over human mu opioid receptor.
Experiment [16] is filed under the species Homo sapiens. In words: Selectivity for human recombinant delta opioid receptor over human kappa opioid receptor.
Experiment [17] deals with T1, Kappa-type opioid receptor. The experiment in a line: Agonist activity at human recombinant kappa opioid receptor expressed in CHO cell membranes after 60 mins by [35S]GTPgammaS binding assay. The format is functional.
In experiment [18] the target is T1, Kappa-type opioid receptor. The experiment in a line: Agonist activity at human recombinant kappa opioid receptor expressed in CHO cell membranes after 60 mins by [35S]GTPgammaS binding assay relative to U69593. The format is functional.
Experiment [19] is filed under the species Homo sapiens. In words: Selectivity for human recombinant mu opioid receptor over human kappa opioid receptor.
For experiment [20], the species on record is Homo sapiens. The experiment in a line: Selectivity for human recombinant mu opioid receptor over human delta opioid receptor.

T1 sequence (P41145 whole entry): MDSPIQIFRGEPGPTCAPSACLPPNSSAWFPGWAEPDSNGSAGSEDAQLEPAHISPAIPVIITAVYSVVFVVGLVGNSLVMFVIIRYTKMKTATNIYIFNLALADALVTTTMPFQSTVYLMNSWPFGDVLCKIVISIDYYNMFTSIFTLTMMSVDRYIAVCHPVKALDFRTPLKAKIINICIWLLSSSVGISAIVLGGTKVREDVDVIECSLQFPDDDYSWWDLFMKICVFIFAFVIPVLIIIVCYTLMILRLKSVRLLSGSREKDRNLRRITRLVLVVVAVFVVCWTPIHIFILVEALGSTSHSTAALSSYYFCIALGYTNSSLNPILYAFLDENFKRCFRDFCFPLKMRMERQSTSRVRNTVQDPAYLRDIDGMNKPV

Turning to `CN1C(=O)[C@H](CCO)CC2=C1[C@@H]1Oc3c(O)ccc4c3[C@@]13CCN(C)[C@H](C4)[C@]3(O)C2`, the values for the inhibition constant (Ki) (in [1]; on Mu-type opioid receptor [2]; in experiment [6]) were 48.7 nM, 2.37 nM and 3.59 nM, respectively. Moreover, the Activity in [3] was determined as 66%; at Mu-type opioid receptor [8] it was 36%. In addition, the results for the EC50 (on Mu-type opioid receptor [4]; in experiment [7]) were 163 nM and 11.8 nM, respectively. Moreover, the Ke in [5] was 321 nM.
Consider `O=C1CCC2=C([C@@H]3Oc4c(O)ccc5c4[C@@]34CCN(CC3CC3)[C@H](C5)[C@]4(O)C2)N1CCc1ccccc1`, for which the results for the Smax (at Mu-type opioid receptor [9]; on Nociceptin receptor [11]; in [12]) were 1%, 5% and -10%, respectively. Also, the inhibition constant Ki at Nociceptin receptor [10] stood at 1500 nM.
Take `O=C1CCC2=C([C@@H]3Oc4c(O)ccc5c4[C@@]34CCN(CC3CC3)[C@H](C5)[C@]4(O)C2)N1CC1CCCCC1`: the Smax at Mu-type opioid receptor [9] is -1%; at Nociceptin receptor [11], 5%; in experiment [12], -5%. In addition, the inhibition constant Ki on Nociceptin receptor [10] worked out at 880 nM; in [1], 0.33 nM; on Mu-type opioid receptor [2], 0.11 nM; in experiment [6], 0.28 nM.
On to `O=C1CCC2=C([C@@H]3Oc4c(O)ccc5c4[C@@]34CCN(CC3CC3)[C@H](C5)[C@]4(O)C2)N1Cc1cccc(F)c1`, for which the figures for the Smax (on Mu-type opioid receptor [9]; at Nociceptin receptor [11]; in [12]) were -1%, 7% and -9%, respectively.
With `C=CCN1CC[C@]23c4c5ccc(O)c4O[C@H]2C2=C(CCC(=O)N2CCc2ccccc2)C[C@@]3(O)[C@H]1C5`, the Smax on Mu-type opioid receptor [9] is -2%; on Nociceptin receptor [11] it was 4%; in [12] it was -15%.
Take `CN1CC[C@]23c4c5ccc(O)c4O[C@H]2C2=C(C[C@H](CCO)C(=O)N2Cc2ccccc2)C[C@@]3(O)[C@H]1C5`: the Ki in experiment [1] came to 15.6 nM; on Mu-type opioid receptor [2] it was 3 nM; in experiment [6] it was 2.85 nM. Moreover, the Activity stood at 68% in experiment [3] and 36% at Mu-type opioid receptor [8]. Also, the values for the half-maximal effective concentration (EC50) (at Mu-type opioid receptor [4]; in experiment [7]) were 94.9 nM and 10.6 nM, respectively. The Ke in experiment [5] was determined as 16.8 nM.
Turning to `C[C@H]1CC2=C([C@@H]3Oc4c(O)ccc5c4[C@@]34CCN(CC3CC3)[C@H](C5)[C@]4(O)C2)N(Cc2ccccc2)C1=O`, the inhibitory constant (Ki) was 0.71 nM in experiment [1], 0.42 nM at Mu-type opioid receptor [2] and 1.58 nM in [6]. The Ke in experiment [5] came to 2.03 nM; at Mu-type opioid receptor [13] it was 0.6 nM; in experiment [14] it was 0.57 nM.
With `O=C1[C@H](CCO)CC2=C([C@@H]3Oc4c(O)ccc5c4[C@@]34CCN(CC3CC3)[C@H](C5)[C@]4(O)C2)N1Cc1ccccc1`, the inhibition constant (Ki) in experiment [1] amounted to 1.29 nM; at Mu-type opioid receptor [2], 0.43 nM; in [6] it was 0.7 nM. Further, the values for the Ke (in experiment [5]; on Mu-type opioid receptor [13]; in [14]) were 0.73 nM, 0.35 nM and 0.47 nM, respectively.
As to `C[C@@H]1CC2=C([C@@H]3Oc4c(O)ccc5c4[C@@]34CCN(CC3CC3)[C@H](C5)[C@]4(O)C2)N(Cc2ccccc2)C1=O`, the Ki in [1] was 0.95 nM; at Mu-type opioid receptor [2], 0.56 nM; in experiment [6] it was 0.85 nM. For the same compound, the Ke in experiment [5] amounted to 0.23 nM; at Mu-type opioid receptor [13], 0.5 nM; in [14], 0.23 nM.
As to `O=C1[C@@H](CCO)CC2=C([C@@H]3Oc4c(O)ccc5c4[C@@]34CCN(CC3CC3)[C@H](C5)[C@]4(O)C2)N1Cc1ccccc1`, the inhibition constant Ki amounted to 2.76 nM in [1], 1.54 nM on Mu-type opioid receptor [2] and 2.38 nM in experiment [6]. Also, the Ke in experiment [5] is 2.22 nM; at Mu-type opioid receptor [13], 1.62 nM; in [14], 0.93 nM.
For `Cc1[nH]c2c(c1Cc1ccccc1)C[C@@]1(O)[C@H]3Cc4ccc(O)c5c4[C@@]1(CCN3CC1CC1)[C@H]2O5`, the Selectivity ratio in the experiment listed under Homo sapiens [15] and in the experiment listed under Homo sapiens [16] was 40 each time.
Take `CCOC(=O)Cc1c2c(n(Cc3ccccc3)c1O)[C@@H]1Oc3c(O)ccc4c3[C@@]13CCN(CC1CC1)[C@H](C4)[C@]3(O)C2`: the Ki in experiment [1] came out at 4.79 nM; on Mu-type opioid receptor [2] it was 8.65 nM; in experiment [6], 10 nM. In addition, the Ke on Mu-type opioid receptor [13] was 6.61 nM; in [14], 6.79 nM.
For the compound `CN1CC[C@]23c4c5ccc(O)c4O[C@H]2C2=C(C[C@@H](CCO)C(=O)N2Cc2ccccc2)C[C@@]3(O)[C@H]1C5`, the Ki in experiment [1] was 4.68 nM; on Mu-type opioid receptor [2], 2.03 nM; in [6] it was 1.02 nM. The Activity in experiment [3] worked out at 73%. Besides, the values for the Ke (in [5]; on Mu-type opioid receptor [13]) were 29.3 nM and 32.9 nM, respectively. Besides, the concentration giving a half-maximal response (EC50) in experiment [7] stood at 2.37 nM.
For `CN1C(=O)CCC2=C1[C@@H]1Oc3c(O)ccc4c3[C@@]13CCN(C)[C@H](C4)[C@]3(O)C2`, the results for the inhibition constant Ki (in [1]; on Mu-type opioid receptor [2]; in experiment [6]) were 20.4 nM, 1.23 nM and 9.39 nM, respectively. The Activity in experiment [3] was 67%; at Mu-type opioid receptor [8], 40%. For the same compound, the EC50 was 80 nM at Mu-type opioid receptor [4] and 25.5 nM in experiment [7].
For the compound `O=C1CCC2=C([C@@H]3Oc4c(O)ccc5c4[C@@]34CCN(CC3CC3)[C@H](C5)[C@]4(O)C2)N1Cc1cccc(Cl)c1`, the Smax on Mu-type opioid receptor [9] was -1%; on Nociceptin receptor [11], 7%; in experiment [12] it was -11%.
For the compound `O=C1CCC2=C([C@@H]3Oc4c(O)ccc5c4[C@@]34CCN(CC3CC3)[C@H](C5)[C@]4(O)C2)N1Cc1ccccc1`, the Smax on Mu-type opioid receptor [9] was -1%; at Nociceptin receptor [11], 12%; in experiment [12], -20%. Also, the Ki on Nociceptin receptor [10] is 1300 nM; in [1], 0.15 nM; at Mu-type opioid receptor [2], 0.18 nM; in experiment [6] it was 0.36 nM.
For `CCOC(=O)Cc1c2c(n(Cc3ccccc3)c1O)[C@@H]1Oc3c(O)ccc4c3[C@@]13CCN(C)[C@H](C4)[C@]3(O)C2`, the Ki in [1] worked out at 159 nM; at Mu-type opioid receptor [2], 13.2 nM; in experiment [6], 82.1 nM. The results for the EC50 (in experiment [17]; on Mu-type opioid receptor [4]; in [7]) were 434 nM, 70.5 nM and 42.5 nM, respectively. The Activity in experiment [3] stood at 74%; in [18], 23%; at Mu-type opioid receptor [8], 86%.
In the case of `CN1CC[C@]23c4c5ccc(O)c4O[C@H]2C2=C(CCC(=O)N2Cc2ccccc2)C[C@@]3(O)[C@H]1C5`, the inhibitory constant (Ki) amounted to 1.98 nM in experiment [1], 0.29 nM on Mu-type opioid receptor [2] and 0.92 nM in experiment [6]. Also, the EC50 at Mu-type opioid receptor [4] was determined as 4.97 nM; in experiment [7], 3 nM. Further, the Ratio Ki in the experiment filed under Homo sapiens [19] and in the experiment listed under Homo sapiens [20] was 3 each time. In addition, the Ke in [5] was found to be 21.3 nM. In addition, the Activity on Mu-type opioid receptor [8] is 52%.
Regarding `CN1C(=O)[C@@H](CCO)CC2=C1[C@@H]1Oc3c(O)ccc4c3[C@@]13CCN(C)[C@H](C4)[C@]3(O)C2`, the Ki came to 182 nM in experiment [1], 12.8 nM on Mu-type opioid receptor [2] and 9.25 nM in experiment [6]. The Activity in experiment [3] turned out to be 80%; on Mu-type opioid receptor [8] it was 37%. In addition, the half-maximal effective concentration (EC50) was 709 nM on Mu-type opioid receptor [4] and 30.6 nM in [7]. Further, the Ke in experiment [5] was determined as 2140 nM.

One may read the Ki as the dissociation constant of the complex between target and ligand, obtained from inhibition or displacement. One may read the EC50 as the concentration giving half of the maximal effect.
